Read-outs that look alike come from different tables or passages of the source.
What was measured:
Experiment in all cases: KinomeScan kinase panel, single concentration 10 µM
Format in all cases: binding
KinomeScan kinase panel [1] = biological target: T1, KinomeScan kinase panel (Homo sapiens, UniProt O75582); settings: 10 µM, read-out: score (%)
T1 construct: purchased DiscoveRx (KinomeScan)

KinomeScan kinase panel [2] = biological target: T2, KinomeScan kinase panel (Homo sapiens, UniProt P49137); settings: MAPKAPK2, 10 µM; read-out: score (%)
T2 construct: purchased DiscoveRx (KinomeScan)

KinomeScan kinase panel [3] = biological target: T3, KinomeScan kinase panel (Homo sapiens, UniProt Q9H2G2); settings: 10 µM, read-out: score (%)
T3 construct: purchased DiscoveRx (KinomeScan)

KinomeScan kinase panel [4] = biological target: T4, KinomeScan kinase panel (Homo sapiens, UniProt Q9NSY1); settings: BIKE, 10 µM; read-out: score (%)
T4 construct: purchased DiscoveRx (KinomeScan)

KinomeScan kinase panel [5] = biological target: T5, KinomeScan kinase panel (Homo sapiens, UniProt Q9UQM7); settings: CAMK2A, 10 µM; read-out: score (%)
T5 construct: purchased DiscoveRx (KinomeScan)

KinomeScan kinase panel [6] = biological target: T6, KinomeScan kinase panel (Homo sapiens, UniProt O15075); settings: DCAMKL1, 10 µM
T6 construct: purchased DiscoveRx (KinomeScan)

KinomeScan kinase panel [7] = biological target: T7, KinomeScan kinase panel (Homo sapiens, UniProt P29322); settings: EPHA8, 10 µM; read-out: score (%)
T7 construct: purchased DiscoveRx (KinomeScan)
T7 sequence (P29322 28-1005): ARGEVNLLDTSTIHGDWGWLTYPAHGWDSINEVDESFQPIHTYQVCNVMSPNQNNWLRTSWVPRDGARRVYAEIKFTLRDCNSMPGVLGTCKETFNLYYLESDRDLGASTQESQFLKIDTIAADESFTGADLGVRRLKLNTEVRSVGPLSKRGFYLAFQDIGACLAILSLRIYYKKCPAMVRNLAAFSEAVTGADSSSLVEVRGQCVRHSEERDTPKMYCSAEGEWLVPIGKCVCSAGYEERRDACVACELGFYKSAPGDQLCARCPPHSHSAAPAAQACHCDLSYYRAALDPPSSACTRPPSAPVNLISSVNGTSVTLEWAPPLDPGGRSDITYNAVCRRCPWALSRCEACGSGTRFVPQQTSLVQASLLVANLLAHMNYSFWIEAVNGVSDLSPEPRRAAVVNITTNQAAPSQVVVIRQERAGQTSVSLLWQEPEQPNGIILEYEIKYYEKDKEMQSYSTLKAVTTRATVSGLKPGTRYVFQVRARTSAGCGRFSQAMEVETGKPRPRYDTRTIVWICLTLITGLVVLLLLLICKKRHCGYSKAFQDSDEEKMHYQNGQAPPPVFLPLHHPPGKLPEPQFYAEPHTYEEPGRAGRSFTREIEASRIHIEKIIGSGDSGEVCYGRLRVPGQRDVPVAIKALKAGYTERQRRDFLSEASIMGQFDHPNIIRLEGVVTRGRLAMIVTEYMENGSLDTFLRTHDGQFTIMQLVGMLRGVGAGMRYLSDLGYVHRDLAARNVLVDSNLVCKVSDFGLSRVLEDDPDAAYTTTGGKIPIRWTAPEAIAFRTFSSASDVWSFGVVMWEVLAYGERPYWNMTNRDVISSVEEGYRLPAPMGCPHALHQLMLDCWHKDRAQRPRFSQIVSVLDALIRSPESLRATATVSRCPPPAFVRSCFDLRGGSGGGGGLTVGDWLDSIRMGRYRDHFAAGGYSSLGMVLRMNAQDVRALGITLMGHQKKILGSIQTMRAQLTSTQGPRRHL

KinomeScan kinase panel [8] = biological target: T8, KinomeScan kinase panel (Homo sapiens, UniProt Q9UKI8); settings: read-out: score (%)
T8 construct: purchased DiscoveRx (KinomeScan)
T8 sequence (Q9UKI8 1-766): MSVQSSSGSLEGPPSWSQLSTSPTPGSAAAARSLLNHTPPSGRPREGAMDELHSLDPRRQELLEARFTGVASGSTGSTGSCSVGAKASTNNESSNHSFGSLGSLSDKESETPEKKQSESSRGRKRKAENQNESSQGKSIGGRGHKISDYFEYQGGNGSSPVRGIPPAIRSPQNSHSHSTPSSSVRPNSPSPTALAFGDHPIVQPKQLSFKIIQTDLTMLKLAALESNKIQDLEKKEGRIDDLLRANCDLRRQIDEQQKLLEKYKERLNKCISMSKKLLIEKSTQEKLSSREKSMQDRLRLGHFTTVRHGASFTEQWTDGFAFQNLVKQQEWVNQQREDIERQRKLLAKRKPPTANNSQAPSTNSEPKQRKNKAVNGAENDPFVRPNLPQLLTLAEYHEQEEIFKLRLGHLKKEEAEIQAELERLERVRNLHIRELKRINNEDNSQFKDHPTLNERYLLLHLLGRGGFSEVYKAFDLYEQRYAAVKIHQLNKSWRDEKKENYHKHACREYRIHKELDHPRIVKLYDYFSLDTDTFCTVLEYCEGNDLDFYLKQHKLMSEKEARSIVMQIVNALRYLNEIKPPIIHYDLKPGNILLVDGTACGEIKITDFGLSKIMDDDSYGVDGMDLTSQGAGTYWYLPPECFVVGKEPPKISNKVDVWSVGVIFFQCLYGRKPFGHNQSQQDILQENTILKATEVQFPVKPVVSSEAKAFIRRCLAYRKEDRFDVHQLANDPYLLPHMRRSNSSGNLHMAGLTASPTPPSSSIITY

KinomeScan kinase panel [9] = biological target: T9, KinomeScan kinase panel (Homo sapiens, UniProt Q9UBE8); settings: NLK, 10 µM; read-out: score (%)
T9 construct: purchased DiscoveRx (KinomeScan)
T9 sequence (Q9UBE8 1-527): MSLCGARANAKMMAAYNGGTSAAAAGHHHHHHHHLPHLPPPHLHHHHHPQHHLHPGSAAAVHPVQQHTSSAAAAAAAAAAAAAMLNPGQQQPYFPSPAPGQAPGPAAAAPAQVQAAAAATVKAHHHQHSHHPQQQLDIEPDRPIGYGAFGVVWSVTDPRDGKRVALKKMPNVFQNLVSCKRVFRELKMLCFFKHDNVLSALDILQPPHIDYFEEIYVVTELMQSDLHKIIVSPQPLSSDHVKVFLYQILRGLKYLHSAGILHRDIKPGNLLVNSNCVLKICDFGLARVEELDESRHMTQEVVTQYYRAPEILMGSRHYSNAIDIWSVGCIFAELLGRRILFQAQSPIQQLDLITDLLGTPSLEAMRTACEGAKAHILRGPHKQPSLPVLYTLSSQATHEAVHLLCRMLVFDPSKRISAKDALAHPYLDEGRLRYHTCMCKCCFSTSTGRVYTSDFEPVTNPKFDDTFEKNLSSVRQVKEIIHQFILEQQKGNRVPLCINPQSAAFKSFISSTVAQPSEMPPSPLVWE

KinomeScan kinase panel [10] = biological target: T10, KinomeScan kinase panel (Homo sapiens, UniProt Q9BWU1); settings: CDK11, 10 µM
T10 construct: purchased DiscoveRx (KinomeScan)

KinomeScan kinase panel [11] = biological target: T11, KinomeScan kinase panel (Homo sapiens, UniProt P22694); settings: PKAC-beta, 10 µM; read-out: score (%)
T11 construct: purchased DiscoveRx (KinomeScan)

[12] = kinase RPS6KA5(Kin.Dom.1-N-terminal)
[13] = kinase RPS6KA5(Kin.Dom.2-C-terminal)

T2 sequence (P49137 whole entry): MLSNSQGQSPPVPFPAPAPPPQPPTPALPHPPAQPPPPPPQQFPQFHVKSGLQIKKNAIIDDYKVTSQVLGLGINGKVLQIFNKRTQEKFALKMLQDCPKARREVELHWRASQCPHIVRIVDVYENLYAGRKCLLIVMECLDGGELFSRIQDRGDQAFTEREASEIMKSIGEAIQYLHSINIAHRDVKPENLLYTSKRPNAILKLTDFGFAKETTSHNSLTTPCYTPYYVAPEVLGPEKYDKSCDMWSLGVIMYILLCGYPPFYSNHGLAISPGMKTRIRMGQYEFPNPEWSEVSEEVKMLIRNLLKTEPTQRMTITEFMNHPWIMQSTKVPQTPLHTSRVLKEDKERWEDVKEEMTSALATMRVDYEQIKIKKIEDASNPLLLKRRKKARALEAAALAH
T10 sequence (Q9BWU1 whole entry): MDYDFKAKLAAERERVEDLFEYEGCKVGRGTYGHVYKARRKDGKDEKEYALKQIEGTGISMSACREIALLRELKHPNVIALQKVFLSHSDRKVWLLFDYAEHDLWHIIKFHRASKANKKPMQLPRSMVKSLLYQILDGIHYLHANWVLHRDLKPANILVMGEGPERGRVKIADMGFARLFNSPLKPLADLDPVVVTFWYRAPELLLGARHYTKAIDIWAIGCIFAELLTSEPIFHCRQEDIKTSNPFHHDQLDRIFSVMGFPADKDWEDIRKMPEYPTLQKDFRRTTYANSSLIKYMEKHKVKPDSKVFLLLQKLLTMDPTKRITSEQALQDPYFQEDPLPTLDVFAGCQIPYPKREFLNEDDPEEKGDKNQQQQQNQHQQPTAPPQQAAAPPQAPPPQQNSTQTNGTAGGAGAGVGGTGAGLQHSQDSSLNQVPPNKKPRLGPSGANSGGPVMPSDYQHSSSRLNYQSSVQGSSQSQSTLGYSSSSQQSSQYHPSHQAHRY
T5 sequence (Q9UQM7 whole entry): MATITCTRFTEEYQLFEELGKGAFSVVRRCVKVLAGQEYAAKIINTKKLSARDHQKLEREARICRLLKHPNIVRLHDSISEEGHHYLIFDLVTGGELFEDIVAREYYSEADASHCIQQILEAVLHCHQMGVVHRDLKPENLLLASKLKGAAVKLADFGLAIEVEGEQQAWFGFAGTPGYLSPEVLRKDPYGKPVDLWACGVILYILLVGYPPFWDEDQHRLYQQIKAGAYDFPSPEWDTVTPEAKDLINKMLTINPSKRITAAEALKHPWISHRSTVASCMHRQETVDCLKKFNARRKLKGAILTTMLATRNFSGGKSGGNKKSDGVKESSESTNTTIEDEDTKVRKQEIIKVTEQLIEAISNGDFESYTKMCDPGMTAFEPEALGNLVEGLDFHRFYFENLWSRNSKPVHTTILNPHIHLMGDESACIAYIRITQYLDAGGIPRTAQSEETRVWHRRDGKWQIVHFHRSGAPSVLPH
T4 sequence (Q9NSY1 whole entry): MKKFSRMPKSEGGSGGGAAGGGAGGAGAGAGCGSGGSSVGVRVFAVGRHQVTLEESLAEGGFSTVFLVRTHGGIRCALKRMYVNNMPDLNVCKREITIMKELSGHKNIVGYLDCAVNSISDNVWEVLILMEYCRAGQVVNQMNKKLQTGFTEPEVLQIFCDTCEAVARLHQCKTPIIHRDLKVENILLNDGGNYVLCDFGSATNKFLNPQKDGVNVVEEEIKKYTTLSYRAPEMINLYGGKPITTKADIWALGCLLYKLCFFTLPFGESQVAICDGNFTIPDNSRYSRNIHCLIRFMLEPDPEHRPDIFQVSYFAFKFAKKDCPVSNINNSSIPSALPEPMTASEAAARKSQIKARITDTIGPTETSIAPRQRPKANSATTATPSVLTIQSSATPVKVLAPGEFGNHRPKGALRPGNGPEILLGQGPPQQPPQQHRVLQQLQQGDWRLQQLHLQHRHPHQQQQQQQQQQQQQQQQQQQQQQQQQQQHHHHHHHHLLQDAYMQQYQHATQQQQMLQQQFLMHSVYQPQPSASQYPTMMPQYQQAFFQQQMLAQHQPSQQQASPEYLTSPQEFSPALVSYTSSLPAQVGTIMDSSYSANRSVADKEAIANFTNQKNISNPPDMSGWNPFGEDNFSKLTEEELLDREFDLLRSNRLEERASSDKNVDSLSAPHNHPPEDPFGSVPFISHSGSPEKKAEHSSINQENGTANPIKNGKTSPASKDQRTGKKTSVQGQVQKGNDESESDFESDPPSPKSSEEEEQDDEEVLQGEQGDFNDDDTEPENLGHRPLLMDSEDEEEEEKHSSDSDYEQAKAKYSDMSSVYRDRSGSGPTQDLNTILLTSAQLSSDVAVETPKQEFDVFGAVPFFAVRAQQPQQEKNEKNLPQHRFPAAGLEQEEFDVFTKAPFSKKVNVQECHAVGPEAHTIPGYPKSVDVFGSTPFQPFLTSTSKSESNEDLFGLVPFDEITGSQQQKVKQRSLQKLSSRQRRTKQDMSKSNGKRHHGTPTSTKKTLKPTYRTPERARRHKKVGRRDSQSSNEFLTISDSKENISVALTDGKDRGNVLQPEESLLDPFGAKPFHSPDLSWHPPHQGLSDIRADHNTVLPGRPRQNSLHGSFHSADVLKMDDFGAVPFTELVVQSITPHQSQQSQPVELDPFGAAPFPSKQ
T1 sequence (O75582 whole entry): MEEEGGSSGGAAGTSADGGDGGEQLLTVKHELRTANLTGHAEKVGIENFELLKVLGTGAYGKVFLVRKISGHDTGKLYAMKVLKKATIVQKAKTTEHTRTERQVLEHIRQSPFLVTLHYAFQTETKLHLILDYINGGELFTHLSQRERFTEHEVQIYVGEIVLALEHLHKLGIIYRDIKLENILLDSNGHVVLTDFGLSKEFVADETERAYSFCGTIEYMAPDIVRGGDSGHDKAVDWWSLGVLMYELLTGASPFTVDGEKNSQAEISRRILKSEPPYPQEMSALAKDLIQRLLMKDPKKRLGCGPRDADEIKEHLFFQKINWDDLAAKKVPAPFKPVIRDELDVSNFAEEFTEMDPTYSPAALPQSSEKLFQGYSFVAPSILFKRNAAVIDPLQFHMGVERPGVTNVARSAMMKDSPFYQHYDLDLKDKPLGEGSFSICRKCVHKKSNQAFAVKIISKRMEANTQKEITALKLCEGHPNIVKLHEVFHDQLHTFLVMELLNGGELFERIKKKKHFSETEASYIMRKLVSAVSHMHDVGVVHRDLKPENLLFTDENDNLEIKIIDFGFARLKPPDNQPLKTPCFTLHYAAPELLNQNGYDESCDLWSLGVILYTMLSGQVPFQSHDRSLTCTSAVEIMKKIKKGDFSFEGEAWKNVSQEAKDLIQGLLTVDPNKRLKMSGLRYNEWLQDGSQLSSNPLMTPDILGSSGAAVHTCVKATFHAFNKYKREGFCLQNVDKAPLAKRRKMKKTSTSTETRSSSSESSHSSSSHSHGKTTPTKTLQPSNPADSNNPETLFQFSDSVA
T3 sequence (Q9H2G2 whole entry): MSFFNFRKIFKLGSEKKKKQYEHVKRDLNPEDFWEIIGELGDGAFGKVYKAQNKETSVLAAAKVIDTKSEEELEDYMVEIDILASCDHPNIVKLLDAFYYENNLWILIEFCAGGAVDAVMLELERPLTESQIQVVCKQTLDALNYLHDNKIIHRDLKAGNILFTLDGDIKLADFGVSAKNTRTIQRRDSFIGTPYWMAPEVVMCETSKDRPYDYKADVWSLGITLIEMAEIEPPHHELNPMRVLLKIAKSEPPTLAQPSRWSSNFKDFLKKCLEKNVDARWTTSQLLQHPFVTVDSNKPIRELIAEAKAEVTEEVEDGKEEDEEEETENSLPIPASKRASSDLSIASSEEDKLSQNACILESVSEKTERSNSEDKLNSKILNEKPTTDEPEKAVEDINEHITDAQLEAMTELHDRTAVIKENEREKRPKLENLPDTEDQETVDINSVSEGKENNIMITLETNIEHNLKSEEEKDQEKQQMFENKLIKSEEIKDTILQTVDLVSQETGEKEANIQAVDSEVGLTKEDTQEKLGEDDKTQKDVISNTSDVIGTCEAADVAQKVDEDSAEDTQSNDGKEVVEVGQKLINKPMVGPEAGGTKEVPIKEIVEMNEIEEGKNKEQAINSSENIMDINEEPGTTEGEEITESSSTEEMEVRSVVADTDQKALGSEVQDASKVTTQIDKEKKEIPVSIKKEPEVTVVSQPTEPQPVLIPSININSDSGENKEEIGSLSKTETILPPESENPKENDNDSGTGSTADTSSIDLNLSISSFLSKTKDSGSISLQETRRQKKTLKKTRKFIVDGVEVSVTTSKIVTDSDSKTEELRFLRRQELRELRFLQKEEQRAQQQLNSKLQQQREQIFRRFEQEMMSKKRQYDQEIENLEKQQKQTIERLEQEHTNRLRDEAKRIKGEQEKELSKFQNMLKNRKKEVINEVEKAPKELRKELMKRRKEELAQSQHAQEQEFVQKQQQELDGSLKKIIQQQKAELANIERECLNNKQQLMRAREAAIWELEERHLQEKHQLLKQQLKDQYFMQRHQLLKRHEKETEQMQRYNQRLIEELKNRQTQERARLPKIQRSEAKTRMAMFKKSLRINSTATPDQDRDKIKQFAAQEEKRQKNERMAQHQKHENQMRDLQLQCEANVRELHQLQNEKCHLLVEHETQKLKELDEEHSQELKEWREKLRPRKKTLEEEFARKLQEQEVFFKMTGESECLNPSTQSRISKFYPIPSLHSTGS

SMILES	remaining binding at 10 µM (KinomeScan kinase panel [1]; [12]) [%]	remaining binding at 10 µM (KinomeScan kinase panel [1]; [13]) [%]	remaining binding at 10 µM (KinomeScan kinase panel [2]) [%]	remaining binding at 10 µM (KinomeScan kinase panel [3]; kinase SLK) [%]	remaining binding at 10 µM (KinomeScan kinase panel [4]) [%]	remaining binding at 10 µM (KinomeScan kinase panel [5]) [%]	score (%) (KinomeScan kinase panel [6])	remaining binding at 10 µM (KinomeScan kinase panel [7]) [%]	remaining binding at 10 µM (KinomeScan kinase panel [8]; kinase TLK1, 10 µM) [%]	remaining binding at 10 µM (KinomeScan kinase panel [9]) [%]	score (%) (KinomeScan kinase panel [10])	remaining binding at 10 µM (KinomeScan kinase panel [11]) [%]	remaining binding at 10 µM (KinomeScan kinase panel [1]; RPS6KA5(Kin.Dom.1)) [%]	remaining binding at 10 µM (KinomeScan kinase panel [1]; RPS6KA5(Kin.Dom.2)) [%]	remaining binding at 10 µM (KinomeScan kinase panel [3]; SLK) [%]	remaining binding at 10 µM (KinomeScan kinase panel [8]; TLK1, 10 µM) [%]
CCN1CCN(Cc2ccc(NC(=O)c3ccc(C)c(NC(=O)c4cncc(-c5cccs5)c4)c3)cc2C(F)(F)F)CC1 [ALW-II-41-27]	11	> 30	> 30	5	> 30	> 30	nb (Hits values higher than 30% were considered negative (no binding: nb))	0.1	> 30	7.2	3.8	8				
CCN1CCN(Cc2ccc(NC(=O)c3ccc(C)c(C#Cc4cccnc4)c3)cc2C(F)(F)F)CC1 [XMD15-44]	59	100	> 30	0.1	> 30	> 30	nb (Hits values higher than 30% were considered negative (no binding: nb))	0	93	8.2	5	4.1				
CCN1CCN(Cc2ccc(NC(=O)c3ccc(C)c(/C=C/c4cnc5[nH]ccc5c4Cl)c3)cc2C(F)(F)F)CC1 [HG-6-63-01, (E)-3-(2-(4-chloro-1H-pyrrolo[2,3-b]pyridin-5-yl)vinyl)-N-(4-((4-ethylpiperazin-1-yl)methyl)-3-(trifluoromethyl)phenyl)-4-methylbenzamide]			> 30		1.2	> 30	nb (Hits values higher than 30% were considered negative (no binding: nb))	0.1		6.8	3	> 30	> 30	> 30	0.85	> 30

Reference: article PMC4457528, “Identification of Novel Small Molecule Inhibitors of Oncogenic RET Kinase” (PLoS ONE, 2015)
